The record followed here is patent US12295936B2, “Immunomodulating urea azalides” (Zoetis Services LLC, priority 2020, dated 2025).

Bounds are passed on as bounds.

The test system of this assay is BRD pathogens, M. haemolytica and P. multocida. In words: MIC screening panel of BRD pathogens (antibacterial / non-antibacterial). Particulars: read-out: antibacterial / non-antibacterial (MIC for the BRD pathogens).
As for `CC[C@H]1OC(=O)[C@H](C)[C@@H](O[C@H]2C[C@@](C)(OC)[C@@H](O)[C@H](C)O2)[C@H](C)[C@@H](O[C@@H]2O[C@H](C)C[C@H](N(C)C(=O)Nc3ccc(C#N)cc3)[C@H]2O)[C@](C)(O)C[C@@H](C)CN(C)[C@H](C)[C@@H](O)[C@]1(C)O` [Example B-12, 3-(4-cyanophenyl)-1-((2S,3R,4S,6R)-2-(((2R,3S,4R,5R,8R,10R,11R,12S,13S,14R)-2-ethyl-3,4,10-trihydroxy-13-(((2R,4R,5S,6S)-5-hydroxy-4-methoxy-4,6-dimethyltetrahydro-2H-pyran-2-yl)oxy)-3,5,6,8,10,12,14-heptamethyl-15-oxo-1-oxa-6-azacyclopentadecan-11-yl)oxy)-3-hydroxy-6-methyltetrahydro-2H-pyran-4-yl)-1-methylurea], the MIC is above 64 µg/mL.
For `CCCN1C[C@H](C)C[C@@](C)(O)[C@H](O[C@@H]2O[C@H](C)C[C@H](N(C)C(=O)N(C)c3ccc(C(F)(F)F)cc3)[C@H]2O)[C@@H](C)[C@H](O[C@H]2C[C@@](C)(OC)[C@@H](O)[C@H](C)O2)[C@@H](C)C(=O)O[C@H](CC)[C@@](C)(O)[C@H](O)[C@H]1C` [Example B-14, 1-((2S,3R,4S,6R)-2-(((2R,3S,4R,5R,8R,10R,11R,12S,13S,14R)-2-ethyl-3,4,10-trihydroxy-13-(((2R,4R,5S,6S)-5-hydroxy-4-methoxy-4,6-dimethyltetrahydro-2H-pyran-2-yl)oxy)-3,5,8,10,12,14-hexamethyl-15-oxo-6-propyl-1-oxa-6-azacyclopentadecan-11-yl)oxy)-3-hydroxy-6-methyltetrahydro-2H-pyran-4-yl)-1,3-dimethyl-3-(4-(trifluoromethyl)phenyl)urea] the value was above 64 µg/mL; for `CCCN1C[C@H](C)C[C@@](C)(O)[C@H](O[C@@H]2O[C@H](C)C[C@H](N(C)C(=O)N(C)c3ccccc3)[C@H]2O)[C@@H](C)[C@H](O[C@H]2C[C@@](C)(OC)[C@@H](O)[C@H](C)O2)[C@@H](C)C(=O)O[C@H](CC)[C@@](C)(O)[C@H](O)[C@H]1C` [Example B-15, 1-((2S,3R,4S,6R)-2-(((2R,3S,4R,5R,8R,10R,11R,12S,13S,14R)-2-ethyl-3,4,10-trihydroxy-13-(((2R,4R,5S,6S)-5-hydroxy-4-methoxy-4,6-dimethyltetrahydro-2H-pyran-2-yl)oxy)-3,5,8,10,12,14-hexamethyl-15-oxo-6-propyl-1-oxa-6-azacyclopentadecan-11-yl)oxy)-3-hydroxy-6-methyltetrahydro-2H-pyran-4-yl)-1,3-dimethyl-3-phenylurea], above 64 µg/mL.
As for `CCOC[C@]1(O)[C@H](C)O[C@@H](O[C@H]2[C@H](C)[C@@H](O[C@@H]3O[C@H](C)C[C@H](N(C)C(=O)Nc4ccccc4)[C@H]3O)[C@](C)(O)C[C@@H](C)CN[C@H](C)[C@@H](O)[C@](C)(O)[C@@H](CC)OC(=O)[C@@H]2C)C[C@@]1(C)OC` [Example C-1, 1-((2S,3R,4S,6R)-2-(((2R,3S,4R,5R,8R,10R,11R,12S,13S,14R)-13-(((2R,4R,5S,6S)-5-(ethoxymethyl)-5-hydroxy-4-methoxy-4,6-dimethyltetrahydro-2H-pyran-2-yl)oxy)-2-ethyl-3,4,10-trihydroxy-3,5,8,10,12,14-hexamethyl-15-oxo-1-oxa-6-azacyclopentadecan-11-yl)oxy)-3-hydroxy-6-methyltetrahydro-2H-pyran-4-yl)-1-methyl-3-phenylurea], the MIC was above 64 µg/mL.
Next, `CCOC[C@]1(O)[C@H](C)O[C@@H](O[C@H]2[C@H](C)[C@@H](O[C@@H]3O[C@H](C)C[C@H](N(C)C(=O)N(C)c4ccc(C(F)(F)F)cc4)[C@H]3O)[C@](C)(O)C[C@@H](C)CN[C@H](C)[C@@H](O)[C@](C)(O)[C@@H](CC)OC(=O)[C@@H]2C)C[C@@]1(C)OC` [Example C-3, 1-((2S,3R,4S,6R)-2-(((2R,3S,4R,5R,8R,10R,11R,12S,13S,14R)-13-(((2R,4R,5S,6S)-5-(ethoxymethyl)-5-hydroxy-4-methoxy-4,6-dimethyltetrahydro-2H-pyran-2-yl)oxy)-2-ethyl-3,4,10-trihydroxy-3,5,8,10,12,14-hexamethyl-15-oxo-1-oxa-6-azacyclopentadecan-11-yl)oxy)-3-hydroxy-6-methyltetrahydro-2H-pyran-4-yl)-1,3-dimethyl-3-(4-(trifluoromethyl)phenyl)urea]: above 64 µg/mL; `CC[C@H]1OC(=O)[C@H](C)[C@@H](O[C@H]2C[C@@](C)(OC)[C@](O)(CCl)[C@H](C)O2)[C@H](C)[C@@H](O[C@@H]2O[C@H](C)C[C@H](N(C)C(=O)Nc3ccccc3)[C@H]2O)[C@](C)(O)C[C@@H](C)CN[C@H](C)[C@@H](O)[C@]1(C)O` [Example E-1, 1-((2S,3R,4S,6R)-2-(((2R,3S,4R,5R,8R,10R,11R,12S,13S,14R)-13-(((2R,4R,5S,6S)-5-(chloromethyl)-5-hydroxy-4-methoxy-4,6-dimethyltetrahydro-2H-pyran-2-yl)oxy)-2-ethyl-3,4,10-trihydroxy-3,5,8,10,12,14-hexamethyl-15-oxo-1-oxa-6-azacyclopentadecan-11-yl)oxy)-3-hydroxy-6-methyltetrahydro-2H-pyran-4-yl)-1-methyl-3-phenylurea]: above 64 µg/mL; `CC[C@H]1OC(=O)[C@H](C)[C@@H](O[C@H]2C[C@@](C)(OC)[C@](O)(CN=[N+]=[N-])[C@H](C)O2)[C@H](C)[C@@H](O[C@@H]2O[C@H](C)C[C@H](N(C)C(=O)Nc3ccccc3)[C@H]2O)[C@](C)(O)C[C@@H](C)CN[C@H](C)[C@@H](O)[C@]1(C)O` [Example F-1, 1-((2S,3R,4S,6R)-2-(((2R,3S,4R,5R,8R,10R,11R,12S,13S,14R)-13-(((2R,4R,5S,6S)-5-(azidomethyl)-5-hydroxy-4-methoxy-4,6-dimethyltetrahydro-2H-pyran-2-yl)oxy)-2-ethyl-3,4,10-trihydroxy-3,5,8,10,12,14-hexamethyl-15-oxo-1-oxa-6-azacyclopentadecan-11-yl)oxy)-3-hydroxy-6-methyltetrahydro-2H-pyran-4-yl)-1-methyl-3-phenylurea]: above 64 µg/mL.
Next, `CC[C@H]1OC(=O)[C@H](C)[C@@H](O[C@H]2C[C@@](C)(OC)[C@](O)(CC#N)[C@H](C)O2)[C@H](C)[C@@H](O[C@@H]2O[C@H](C)C[C@H](N(C)C(=O)Nc3ccccc3)[C@H]2O)[C@](C)(O)C[C@@H](C)CN[C@H](C)[C@@H](O)[C@]1(C)O` [Example G-1, 1-((2S,3R,4S,6R)-2-(((2R,3S,4R,5R,8R,10R,11R,12S,13S,14R)-13-(((2R,4R,5S,6S)-5-(cyanomethyl)-5-hydroxy-4-methoxy-4,6-dimethyltetrahydro-2H-pyran-2-yl)oxy)-2-ethyl-3,4,10-trihydroxy-3,5,8,10,12,14-hexamethyl-15-oxo-1-oxa-6-azacyclopentadecan-11-yl)oxy)-3-hydroxy-6-methyltetrahydro-2H-pyran-4-yl)-1-methyl-3-phenylurea]: above 64 µg/mL.
